Laboratory results taken from paper PMC9934487, “Aging decreases docosahexaenoic acid transport across the blood-brain barrier in C57BL/6J mice” (PLOS ONE, 2023).
“Also recorded” adds a separate entry of the source.

Tests used:
[1] = In situ transcardiac brain perfusion: brain/perfusate ratio at 1 min in 2-, 8-, 12- and 24-month-old mice; assay type: in vivo, C57BL/6J mice; settings: for decrease of [14C]DHA brain/perfusate ratio: 1 min perfusion at 2 mL/min
Experimental: (§1) Brain uptake of DHA was assessed in mice using an in situ transcardiac brain perfusion technique. […] The [1-^14C]DHA as NE-DHA (American Radiolabeled Chemicals, St. Louis, MO, USA; ARC0380), [^3H]mannitol (PerkinElmer, Waltham, MA, USA, NET101) and [^14C]sucrose (PerkinElmer, Waltham, MA, USA; NEC100X) were diluted to concentrations of 0.1 μCi/mL (DHA and sucrose) and 0.2 μCi/mL (mannitol) in a physiological buffer containing 141 mM NaCl (Sigma, St. Louis, MO, USA; 28–2270–5), 4 mM KCl (Wako, Osaka, Japan; 163–03545), 2.8 mM CaCl2 (Sigma; 05–0580), 1 mM MgSO4·7H2O (Kishida Chemical Co., Ltd., Osaka, Japan; 000–46905), 1 mM NaH2PO4·2H2O (Wako; 192–02815), 10 mM d-glucose (Wako; 041–00595), and 10 mM 4-(2-hydroxyethyl)-1-piperazineethanesulfonic acid (HEPES; Sigma; H4034); pH 7.4. In a competition assay, unlabeled NE-DHA (Sigma; D2534-100MG) was added to the perfusate (final concentration of unlabeled DHA: 100 μM) before infusion. Ethanol (Nacalai Tesque, Kyoto, Japan; 14713–95) was added to an equal volume of unlabeled DHA to the perfusate (final ethanol concentration: 0.001%) as the vehicle control.
(§2) Mice were anesthetized using an intraperitoneal injection of 25% urethane (Sigma; 94300). The heart was exposed, the left jugular vein was severed, and the descending aorta was ligated. Perfusate containing [^14C]DHA, [^3H]mannitol, or [^14C]sucrose was then infused into the left ventricle of the heart at a rate of 2 mL/min for 0.5 to 1.5 min using a 27 gauge butterfly needle. In the uptake experiment for aged mice, the perfusate was infused for 1 min. After perfusion, the brain was removed, dissected into six regions (the olfactory bulb, forebrain, cortex, hippocampus, thalamus and hypothalamus, and cerebellum), and weighed. Each brain region was mixed with 1 mL of tissue solubilizer (Solvable™; PerkinElmer; 6NE9100) and incubated at 60°C for 24 h. Samples were prepared for scintillation counting by the addition of 0.2 mL H2O2 (Sigma; 13-1910-5) and 10 mL of liquid scintillation cocktail (Pico-Fluor Plus; PerkinElmer; 6013699). The radioactivity in the samples was then measured using a liquid scintillation counter (Packard 2250CA; PerkinElmer). Brain/perfusate ratios were calculated by dividing the radioactivity in 1 g of brain tissue by the radioactivity in an mL of perfusate. Whole brain values were calculated by dividing the total radioactivity in each brain region by the total weight of each brain region. The unidirectional influx rate (Ki) was determined by the linear portion of the slope in the plot of brain/perfusate ratio against perfusion time.

[2] = In situ transcardiac brain perfusion competition assay with excess unlabeled DHA: brain uptake rate (Ki) in 2-month-old mice
Experimental: as §1, §2
Results are expressed as the mean ± standard error of the mean (SEM). Statistical analyses were performed using GraphPad Prism 8.0 (GraphPad, San Diego, CA, USA). […]

[3] = system: rat brain endothelial cells (RBECs); assay: Cellular uptake of [14C]DHA by primary rat brain endothelial cells; assay type: cell-based
Experimental: The method of primary culture of rat brain endothelial cells (RBECs) is previously described. The meninges and white matter were carefully removed from the forebrains, and the gray matter was minced using a scalpel and enzymatic digestion by DMEM (Wako; 048–29763), including collagenase type 2 (1 mg/mL, Worthington, Lakewood, NJ, USA; CLS2) for 75 min at 37°C with agitation in the water bath. After inactivation by adding cold DMEM, the suspension was centrifuged (1,000 × g, 8 min). The pellet was separated by centrifugation in 20% BSA, (Wako, 011–27055)—DMEM (1,000 × g, 20 min). The pellet containing microvessels were further digested with DMEM including collagenase/dispase (1 mg/mL, Roche, Mannheim, Germany; 11097113001) for 20 min at 37°C with agitation in the water bath. After inactivation, microvessel clusters were separated on a 33% continuous Percoll (GE Healthcare, Buckinghamshire, UK; 17-5445-01) gradient, collected and plated on collagen type IV (0.1 mg/mL, Sigma; C5533) and fibronectin (0.075 mg/mL, Sigma; F1141-5MG) coated dishes. RBEC cultures were maintained in RBEC medium [DMEM/F12 (Wako; 042–30555) supplemented with 10% FBS (Biosera, Kansas, MO, USA; FB-1365/500), basic fibroblast growth factor (1.5 ng/mL, R&D, Minneapolis, MN, USA; 2099-FB-025), heparin (100 μg/mL, Sigma; H3149), insulin (5 μg/mL), transferrin (5 μg/mL), sodium selenite (5 ng/mL; insulin-transferrin-sodium selenite media supplement, Sigma; I1884), penicillin (100 units/mL), streptomycin (100 μg/mL; penicillin-streptomycin mixed solution, Nacalai Tesque; 09367–34) and gentamicin (50 μg/mL, Biowest, Riverside, MO, USA; L0012)] containing puromycin (4 μg/mL, Nacalai Tesque; 14861–84) at 37°C in a humidified atmosphere of 5% CO2/95% air, for three days and typically reached 70–80% confluency. […]
To measure the cellular uptake of DHA, RBECs cultured on a 24-well plate were incubated with 0.2 mL of physiological buffer containing 0.1 μCi/mL [^14C]DHA (incubation buffer) at 37°C for 30 s to 15 min. […] The total protein concentration in the cell lysates was determined using a Pierce™ BCA Protein Assay Kit. Samples were added to 10 mL of a liquid scintillation cocktail, then [^14C]DHA radioactivity in the cell lysate was measured using a liquid scintillation counter. The cellular uptake of [^14C]DHA by RBECs was expressed as cell/medium ratios calculated by dividing the radioactivity in one milligram of protein by the radioactivity in one microliter of the incubation buffer. The rate of cellular uptake was determined by the linear portion of the slope of the cell/medium ratios against the incubation time (0.5, 2, 5, and 10 min) graph.

[4] = cited from earlier work
[5] = design: method as in PMID 33054801; settings: ref PMID 33054801; cited from earlier work
[6] = system: bovine brain endothelial cells; design: method as in PMID: 9886086; settings: 2 h incubation; ref PMID: 9886086; cited from earlier work
[7] = co-infusion of an excess amount of DHA
[8] = capillary depletion after a 40 s in situ brain perfusion, ref PMID: 19442696

OC[C@@H](O)[C@@H](O)[C@H](O)[C@H](O)CO [[^3H]mannitol, mannitol]
effect of age on brain uptake of [3H]mannitol ([1]; each brain region, 2-, 8-, 12-, 24-month-old mice, 1 min): no significant effects with age | change in brain uptake (brain/perfusate ratio) of [3H]mannitol with age ([1]; whole brain, 2-, 8-, 12-, 24-month-old mice, 1 min): No significant changes; also recorded: no significant differences | Kin for [3H]mannitol [2, 7]: not changed | brain/perfusate ratio of [3H]mannitol [2, 7]: increased

CC/C=C\C/C=C\C/C=C\C/C=C\C/C=C\C/C=C\CCC(=O)O [[^14C]DHA, Docosahexaenoic acid]
difference of [14C]DHA brain/perfusate ratio ([1]; forebrain, 2 vs. 12 months old): 0.04489 mL/g | difference of [14C]DHA brain/perfusate ratio ([1]; forebrain, 2 vs. 24 months old): 0.05294 mL/g | difference of [14C]DHA brain/perfusate ratio ([1]; hippocampus, 2 vs. 12 months old): 0.03402 mL/g | difference of [14C]DHA brain/perfusate ratio ([1]; hippocampus, 2 vs. 24 months old): 0.06034 mL/g | difference of [14C]DHA brain/perfusate ratio ([1]; olfactory bulb, 2 vs. 24 months old): 0.04626 mL/g | difference of [14C]DHA brain/perfusate ratio ([1]; thalamus and hypothalamus, 2 vs. 12 months old): 0.04306 mL/g | difference of [14C]DHA brain/perfusate ratio ([1]; thalamus and hypothalamus, 2 vs. 24 months old): 0.05106 mL/g | decrease of [14C]DHA brain/perfusate ratio ([1]; whole brain, 12-month-old vs 2-month-old mice): 0.03275 mL/g | decrease of [14C]DHA brain/perfusate ratio ([1]; whole brain, 24-month-old vs 2-month-old mice): 0.03827 mL/g | rate of cellular uptake of [14C]DHA by RBECs ([3]; 4°C): 19.98 μLmg protein^-1 min^-1 | rate of cellular uptake of [14C]DHA by RBECs ([3]; 37°C): 50.13 μLmg protein^-1 min^-1 | time at which cellular uptake of [14C]DHA by RBECs peaked ([3]; intact RBECs, 37°C): 10 min | [14C]DHA detected in brain parenchymal fraction [4, 8]: more than 90% | [14C]DHA remaining in the endothelial cells of the brain vasculature [4, 8]: less than 10% | [14C]DHA remaining in endothelial cells of the brain vasculature ([4]; capillary depletion after brain perfusion, ref 12 (printed [40])): less than 10% | perfusion time at which brain uptake of [14C]DHA plateaued ([2]; 2-month-old mice, perfusion at 2 mL/min): 1.5 min

OC[C@@H](O)[C@@H](O)[C@H](O)[C@H](O)CO [mannitol]
brain concentrations and Kin compared with sucrose [5]: higher

CC/C=C\C/C=C\C/C=C\C/C=C\C/C=C\C/C=C\CCC(=O)O [unlabeled DHA, Docosahexaenoic acid]
effect on cellular uptake rate of [14C]DHA in rat brain endothelial cells ([3]; in the presence of unlabeled DHA, vs vehicle (Fig. F of response letter)): declined; also recorded: decreased | fate of non-esterified DHA taken up by brain endothelial cells [6]: mainly incorporated into phosphatidylcholine | inhibition at 100 µM ([2]; Mus musculus, read-out: extent of inhibition of the brain uptake rate of [14C]DHA): ~50%
